This note sets out measurements from US20090131309A1, “ICA512 COUPLES INSULIN SECRETION AND GENE EXPRESSION IN BETA-CELLS” (Technische Universität Dresden Medizinizche Fakultät Carl …, priority 2004, published 2009).

For one assay, the system named is pro-ICA512. The assay can be described thus: Immunoblot for pro-ICA512 and ICA512-TMF in INS-1 cells. The class given is cell-based, rat. Particulars: 60 μM Calpeptin. The procedure: Culture of INS-1 cells. INS-1 cells were grown as described^27. In some instances cells were pre-incubated for 1 hour in resting buffer (0 mM glucose, 5 mM KCl) and then for 2 or 6 hours in resting or stimulating (25 mM glucose, 55 mM KCl) buffers as described^7. Calpeptin (Calbiochem) was added in the last 15 minutes of the pre-incubation, and then for the entire following period before cells were harvested. Cells were stimulated with 20 nM human growth hormone (hGH) for 20 minutes following 18 hours incubation in low serum medium (LSM) containing RPMI-1640, 11 mM glucose, 0.5% FBS 25 mM HEPES, 1% penicillin-streptomycin and 0.05 mM β-mercaptoethanol. After washing, cells were either harvested or incubated in LSM for 6 additional hours. For immunoprecipitation cells were collected 1 hour after stimulation with hGH.
Cell extracts and western blotting. INS-1 cells and pancreatic islets were harvested at 4° C. in RIPA buffer [50 mM Tris-HCl at pH 8.0, 150 mM NaCl, 1% NP-40, 0.1% SDS, 0.5% sodium deoxycholate, and 1× protease inhibitor cocktail (Sigma)] to obtain total extracts. Insoluble material was removed by centrifugation. Cytosolic and nuclear extracts were prepared using the NE-PER Nuclear and Cytoplasmic Extraction Reagents (Pierce). Proteins were separated by 8-10% SDS-PAGE and immunoblotted with the following antibodies: mouse monoclonals anti-ICA512^7, anti-STAT5 (Santa Cruz), anti-γ-tubulin and anti-HA (Sigma); rabbit anti-PY-STAT5 and anti-STAT3 (Cell Signaling); affinity purified goat anti-GFP IgGs. Chemiluminescence was developed using the Supersignal West Pico or Femto kits (Pierce) and detected with a LAS 3000 Bioimaging System (Fuji). Protein signals were quantified with the Image Gauge v3.45 software (Fuji). Half the amount of nuclear extract proteins were immunoblotted relative to total and cytosolic extract proteins.
(In general: Immunoblotting shows a protein as a band on a membrane.)

Assay [1] deals with ICA512-TMF. Kind of assay: Stimulus-induced cleavage of ICA512-TMF in INS-1 cells (western blot). The class given is cell-based, rat. The method, then:
Cell extracts and western blotting. Wild type and transfected INS-1 cells and rat pancreatic islets (350-450) were pre-incubated for 60 minutes in resting buffer containing 0 mM glucose and 5 mM KCl and then incubated for various times in fresh resting or stimulating buffer including 25 mM glucose and 55 mM KCl, as previously described (7). […] Next, the cells were washed with ice cold PBS, and extracted in lysis buffer (10 mM Tris-HCl at pH 8.0, 140 mM NaCl, 1% Triton X-100, 1 mM EDTA, 1 mM PMSF, and 1% protease inhibitor cocktail (Sigma, St. Louis, Mo.) at 4° C. Cytosolic and nuclear extracts were prepared using the NE-PER Nuclear and Cytoplasmic Extraction Reagents (Pierce, Rockford, Ill.) in accordance with the manufacturer's instructions. Protein concentration was measured using the Bio-Rad Protein Assay Reagent (Bio-Rad, Hercules, Calif.). Equivalent amount of protein was separated by 8-10% SDS-PAGE, except for nuclear extracts, in which case half of the protein were loaded compared to the corresponding cytosolic extracts. After protein transferring, nitrocellulose filters were incubated with the following antibodies: mouse monoclonal anti-ICA512 (6), anti-μ-calpain (Chemicon, Temecula, Calif.), anti-γ-tubulin and anti-HA (Sigma), anti-GFP (Clontech); rabbit polyclonals anti-Glut2 (Alpha Diagnostics International, St Antonio, Tex.), anti-CPE (Chemicon), anti-GFP (Molecular Probes, Eugene, Oreg.) and anti-HA (kind gift of Christoph Thiele). Chemiluminescence was developed using the Supersignal West Pico Substrate (Pierce) as substrate and detected with a LAS 3000 Bioimaging System (Fuji, Tokyo, Japan). Quantitation of protein signals was performed with the Image Gauge v3.45 software (Fuji).

The next assay has as its system Insulin mRNA. The assay can be described thus: Insulin mRNA levels by real-time PCR in INS-1 cells. In kind it is cell-based, rat. Particulars: 40 μM calpeptin; 2 hrs after 6 hrs stimulation and later; vs cells stimulated without calpeptin. The procedure:
Time-course stimulation of INS-1 cells. INS-1 ceils were incubated for 1 hr. in resting buffer (2.8 mM glucose and 5 mM KCl), then for 6 hrs. in resting or stimulating buffer, with or without 40 μM calpeptin, and then again in resting buffer for up to 24 hrs. Total RNA for real-time PCR was collected at time 0, 2 and 6 hrs. during stimulation and at 2, 6, 12 and 24 hrs. during the following resting period.
Real-time PCR. Total RNA from INS-1 cells was isolated with Trizol (Invitrogen, Karlsruhe, Germany) according to the manufacturer's protocol. 1 μg of total RNA was used for the reverse transcriptase reaction, with 2 μM specific antisense primers for […] and insulin, as described (31). mRNA expression was measured by quantitative real-time PCR using the Brilliant SYBR Green QPCR (Stratagene, La Jolla, Calif.) with an Mx4000 Multiplex Quantitative Real Time PCR System (Stratagene).
Background: Real-time PCR tracks product formation cycle by cycle.

Assay [2] has as its system ICA512-TMF. The assay can be described thus: Stimulus-induced decrease of ICA512-TMF in rat pancreatic islets (western blot). Particulars: purified rat pancreatic islets; with or without 60 μM calpeptin. The class given is cell-based. The procedure: Islet isolation and cell culture. Pancreatic islets were isolated from female Wistar rats by collagenase digestion, purified by density gradient centrifugation, and cultured (400/60 mm culture dish) as described previously (26). INS-1 cells were grown as described (27). Cell extracts and western blotting. Wild type and transfected INS-1 cells and rat pancreatic islets (350-450) were pre-incubated for 60 minutes in resting buffer containing 0 mM glucose and 5 mM KCl and then incubated for various times in fresh resting or stimulating buffer including 25 mM glucose and 55 mM KCl, as previously described (7). […] Next, the cells were washed with ice cold PBS, and extracted in lysis buffer (10 mM Tris-HCl at pH 8.0, 140 mM NaCl, 1% Triton X-100, 1 mM EDTA, 1 mM PMSF, and 1% protease inhibitor cocktail (Sigma, St. Louis, Mo.) at 4° C. Cytosolic and nuclear extracts were prepared using the NE-PER Nuclear and Cytoplasmic Extraction Reagents (Pierce, Rockford, Ill.) in accordance with the manufacturer's instructions. Protein concentration was measured using the Bio-Rad Protein Assay Reagent (Bio-Rad, Hercules, Calif.). Equivalent amount of protein was separated by 8-10% SDS-PAGE, except for nuclear extracts, in which case half of the protein were loaded compared to the corresponding cytosolic extracts. […] Quantitation of protein signals was performed with the Image Gauge v3.45 software (Fuji).

`CCCC[C@@H](C=O)NC(=O)[C@H](CC(C)C)NC(=O)OCc1ccccc1` [calpeptin]: the “rapid induction of pro-ICA512” value with pro-ICA512 (cells stimulated for 2 hours) was “did not prevent the rapid induction of pro-ICA512”. In the assay with pro-ICA512 (cells stimulated for 6 hours), the “greater induction of pro-ICA512 and decrease of ICA512-TMF” value is on record as “partially inhibited”. Also, in the assay with ICA512-TMF [1] (INS-1 cells, stimulating buffer (25 mM glucose, 55 mM KCl) 105 min, western blot), the “Ca2+-dependent cleavage of ICA512-TMF cytoplasmic domain upon stimulation” value is given as “prevented in a dose-dependent manner”. The “stimulation induced proteolysis of ICA512-TMF-GFP” value in the assay with ICA512-TMF [1] (cytosolic extracts of ICA512-GFP INS-1 cells, 60 μM calpeptin) is “calpeptin-sensitive proteolysis of ICA512-TMF-GFP”. Moreover, in the assay with ICA512-TMF [1] (stimulated INS-1 cells expressing dynamin 1 (K44A)-GFP), the “increased proteolysis of ICA512-TMF in dynamin 1 (K44A)-GFP cells” value is recorded as “inhibited by calpeptin in a dose-dependent fashion”. In the assay on Insulin mRNA, the “insulin mRNA reduction” value is given as around 40%. The “decrease of ICA512-TMF upon stimulation” value in the assay with ICA512-TMF [2] is reported as “calpeptin-sensitive decrease of ICA512-TMF”.
